# In ChEMBL document CHEMBL1142370, “Synthesis and SAR of pyridazinone-substituted phenylalanine amide alpha4 integrin antagonists” (Bioorg Med Chem Lett, 2008):
# Assays:
# in vivo [1] = conditions: rat, po, 30 mg/kg
# in vivo [2] = conditions: rat, po, 30 mg/kg; remark: listed apart in the source
# in vitro = conditions: human, Caco-2
Cmax (in vivo [2]) [µM],Papp A→B (in vitro) [×10⁻⁶ cm/s],Compound,bioavailability (in vivo [1]) [%]
,,COc1cnn(C)c(=O)c1-c1ccc(C[C@H](NC(=O)c2cc(F)ccc2Cl)C(=O)O)cc1,0
19,,COc1cnn(C)c(=O)c1-c1ccc(C[C@H](NC(=O)c2cc(F)ccc2Cl)C(=O)OCCO)cc1,5
0.1,0.13,COc1cnn(C)c(=O)c1-c1ccc(C[C@H](NC(=O)c2c(Cl)cccc2Cl)C(=O)O)cc1,
